Experiments:
[1] = system: Wistar rat's isolated; reserpine pretreated right atrium beating rate and left atrium isometric contractions; assay: Direct effect (intrinsic sympathomimetic activity) on reserpine-pretreated isolated atria
Procedure: Pharmacol 311, pp. 205-218 and pp 237-248 (1980). Wistar rats of weight between 200 ∼ 300 gm were used. 18 ∼ 24 hours before the experiment, 5mg/kg of reserpine was injected via abdominal cavity to remove all endogenous catecholamines. Prior experiment, Wistar rats were sacrificed, the heart was immediately removed and placed in Kreb's solution aerated with air mixture and maintained at room temperature. The right and left atria were carefully separated.

A7r5 cells = assay: Fluorescence determination of intracellular calcium ion (fluo 3-AM, laser cytometer); type: cell-based; settings: 10^-8, 10^-7, and 10^-6M for 5 minutes
Procedure: The intensity of fluo 3-AM was measured by line scanning at 30second interval with an argon laser at […].

[2] = system: BayK8644 pretreated thoracic aorta; assay: Isolated thoracic aorta pretreated with BayK8644, then contracted with concentrated potassium solution; design: species or system Wistar rat; settings: 0.1 µ M of BayK8644 for 10 minutes; 10^-8 to 10^-5 M compound
Procedure: The effect of compound 1 on the thoracic aorta contraction caused by 75mM KCl. The Wistar rat's isolated thoracic aorta was contraction induced by 75mM of concentrated Potassium solution. […] Furthermore, the contraction effects of 10^-8M of compound 1- 9 were indicated on Table 1. (b) The effect of compound 1 on BayK8644 pretreated thoracic aorta: 0.1 µ M of BayK8644 was first added into the tissue trough. 10 minutes later, 75mM of concentrated Potassium solution was added to induce thoracic aorta contraction. When vasoconstriction had reached stability, different concentrations of (10^-8, 10^-7, 10^-6, and 10^-5M) compound 1 were separately added.

atrial β 1-receptor = molecular target: T1, atrial β 1-receptor (Rattus norvegicus, UniProt P18090); assay: [3H]CGP-12177 receptor binding on atrial membranes; design: species or system Wistar rat
T1 construct: The heart and lung of rat were removed and placed in cold Tris buffer; from tissue; host or cells: rat atrial membranes
Procedure: (§1) The heart and lung of rat were removed and placed in cold Tris buffer. Then the atria and lung were separated and weighed, before placing in cold Tris buffer with volume 20X their weights. […] The centrifugal fluid was again centrifuged at 10,000 gm for 12 minutes. The second centrifugal fluid was centrifuged for the third time at 29,000 gm for 15 minutes. The pellet finally obtained was re-suspended in Tris buffer as little as possible. […] Finally, the protein concentration was diluted with Tris buffer to maintain 200∼250 µ g protein per 100 µ l.
(§2) After reaction, 1ml of cold Tris buffer was added to terminate the binding reaction.

β-adrenoreceptor (β1) [3] = molecular target: T2, β-adrenoreceptor (β1) (Rattus norvegicus, UniProt P18090); assay: β-adrenoceptor blocking action on electrically driven isolated left atrium (L-isoproterenol-induced contractility); design: species or system Wistar rat
T2 construct: The right and left atria were then separated; from tissue; host or cells: isolated rat right and left atria
Procedure: The inspontaneously-beating left atrial tissue was obtained from rat's isolated right atrial tissue experiments. […] The contraction rate was 1Hz and the resting tension 0.5 gm. After 60 minutes of equilibration, the following experiments were performed: • (a) Completion of cumulative concentration-response curve: similar to experimental method on isolated right atrium; • (b)Calculation of pA2 value: similar to calculation method on isolated right atrium.

[4] = system: guinea pig's isolated; reserpine pretreated tracheal; assay: Direct effect (tracheal relaxation, intrinsic sympathomimetic activity) on reserpine-pretreated isolated trachea, with and without ICI 118,551
Procedure: Pharmacol 311, pp. 205-218 and pp.237-248 (1980). guinea pigs of weight between 350 ∼ 500 gm were used. 18 ∼ 24 hours before the experiment, 5mg/kg of reserpine was injected via abdominal cavity to remove all endogenous catecholamines. Prior experiment, guinea pigs were sacrificed, the tracheal was immediately removed and placed in Kreb's solution aerated with air mixture and maintained at room temperature of 22 ∼ 25°C. […] […] Then the tissue was repeatedly washed with Kreb's solution. After the tissue had been re-equilibrated for 60 minutes, ICI 118, 551 were administed. After treatment for 30 minutes, compound 1 of similar concentration was administered, and the intrinsic sympathomimetic activity of tracheal was observed.

lung β 2-receptor = molecular target: T3, lung β 2-receptor (Rattus norvegicus, UniProt P10608); assay: [3H]CGP-12177 receptor binding on lung membranes; design: species or system Wistar rat
T3 construct: The heart and lung of rat were removed and placed in cold Tris buffer; from tissue; host or cells: rat lung membranes
Procedure: as §1, §2

normotensive rats = assay: Heart rate and blood pressure in living (anaesthetized) rat, intravenous injection; type: in vivo, Wistar rats
From the text: Male Wistar rats, weighing 200 ∼ 300g were abdominal anaesthetized with pentobarbital sodium. Tracheal was cannulated to maintain normal respiration. Polyethylene tube was inserted into the left femoral vein to facilitate drug administration. A 3-way stopcock was used, with one end connected to a syringe for drug injection, while the other end was connected to the syringe filled with physiological saline. The latter was used to prevent residual drugs in the polyethylene tube after injection, which would affect experimental accuracy.
The right femoral artery was also inserted with polyethylene, and a 3-way stopcock was used tool, where one end was connected to heparin solution to prevent embolism. The other end was connected to a Disposable Diaphragm Dome, TA1019, and linked to a transducer. Through an amplifier, a recorder recorded the overall and average arterial pressure; heart rate to evaluate the effect of drug on blood pressure and heart rate.

β-adrenoreceptor (β1) [5] = molecular target: T2, β-adrenoreceptor (β1); assay: β-adrenoceptor blocking action on isolated spontaneously beating right atrium (L-isoproterenol-induced heart rate increase, Schild plot); design: species or system Wistar rat
Procedure: The right and left atria were then separated. The spontaneously-beating right atria was clipped on both end by heart shaped clips, where one end was fixed at the bottom of 10ml of tissue bath made of physiological saline solution, and temperature maintained at 37°C. The other end of the atria was connected to a force transducer, and isometric contractions and beating rate of the right atria were recorded by COULBOURN AT-High-Speed VideoFigure. […] Cumulative administration interval was when the previous concentration reached its greatest effect, the next concentration would be immediately given.

β2-adrenoceptor = molecular target: T4, β2-adrenoceptor (Cavia porcellus, UniProt Q8K4Z4); assay: β-adrenoceptor blocking action on isolated trachea contracted with carbachol (L-isoproterenol relaxation); design: species or system guinea pig
T4 construct: a portion of tracheal approximately 4 cm long was removed; from tissue; host or cells: isolated guinea pig trachea (reserpine-pretreated animals)
Procedure: Guinea pigs of weight between 300 ∼500 gm were used. […] After the guinea pigs were sacrificed, a slit was made along the neck, and a portion of tracheal approximately 4 cm long was removed. […] The two ends of the tracheal were clamped with frog-heart shaped clamps, one end was fixed at the bottom of tissue bath filled with 20 ml of Kreb's solution, maintained at 37°C, while the other end was connected to a force transducer. Through a COULBOURN AT-High-Speed Videograph, long isometric contractions were recorded. […] Then the tracheal was repeatedly washed with Kreb's solution for 20 minutes and 10^-6 M of carbochol was added to cause contraction in the guinea pig's tracheal. When the contraction reached the maximum, every division of tracheal was used to complete two concentration response curve of L-isoproternol, one of them without administration of test compound and used as control; while the other curve was administered with compound 1 for 30 minutes before concentration response curve was completed. This is the test group. • (b) Calculation of pA2: similar to the calculation method for isolated right atrium experiment.

[6] = system: Wistar rat's isolated thoracic aorta; assay: Isolated thoracic aorta contraction caused by 75mM KCl; settings: 10^-8M; thoracic aorta contraction caused by 75mM KCl
Procedure: After sacrificing Wistar rat of weight between 300 - 500 gm, the thoracic aorta was immediately removed and placed in cold Kreb's solution. The fatty connecting tissue surrounding the vessel wall was removed and the thoracic aorta was cut into rings of length 5 mm. The two ends of each ring was pieced and fixed with "Z" shaped platinum wires. […] When the results had been recorded for at least 35 minutes, the aorta was repeatedly rinsed with normal Kreb's solution. […] 30 minutes later, 75mM KCl was added again to induce vasoconstriction.

T2 sequence (P18090 whole entry): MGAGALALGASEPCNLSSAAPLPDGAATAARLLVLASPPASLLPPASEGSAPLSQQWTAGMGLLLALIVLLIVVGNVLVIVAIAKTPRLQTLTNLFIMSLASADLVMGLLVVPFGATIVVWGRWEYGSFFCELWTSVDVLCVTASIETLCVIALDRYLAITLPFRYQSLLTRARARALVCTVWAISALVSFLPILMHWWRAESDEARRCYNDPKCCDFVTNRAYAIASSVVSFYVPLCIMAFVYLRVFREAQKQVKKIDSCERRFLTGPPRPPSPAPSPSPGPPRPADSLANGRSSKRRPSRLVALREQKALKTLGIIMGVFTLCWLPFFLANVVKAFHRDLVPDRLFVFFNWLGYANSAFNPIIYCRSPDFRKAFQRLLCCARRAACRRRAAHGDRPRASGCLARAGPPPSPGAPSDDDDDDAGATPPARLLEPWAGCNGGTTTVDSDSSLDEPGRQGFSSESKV
T4 sequence (Q8K4Z4 whole entry): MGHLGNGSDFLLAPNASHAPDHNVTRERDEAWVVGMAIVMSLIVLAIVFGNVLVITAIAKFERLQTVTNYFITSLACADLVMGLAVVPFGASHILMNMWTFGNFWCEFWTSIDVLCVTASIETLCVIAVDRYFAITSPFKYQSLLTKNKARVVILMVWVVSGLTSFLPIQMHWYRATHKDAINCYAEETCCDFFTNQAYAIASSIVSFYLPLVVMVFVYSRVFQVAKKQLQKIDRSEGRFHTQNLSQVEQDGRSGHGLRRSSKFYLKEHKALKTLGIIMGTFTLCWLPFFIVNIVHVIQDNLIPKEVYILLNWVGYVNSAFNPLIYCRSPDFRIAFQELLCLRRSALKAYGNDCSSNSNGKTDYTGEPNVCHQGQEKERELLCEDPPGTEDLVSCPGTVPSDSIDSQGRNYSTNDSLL
T1 sequence (P18090 whole entry): as the sequence (P18090 whole entry) above
T3 sequence (P10608 whole entry): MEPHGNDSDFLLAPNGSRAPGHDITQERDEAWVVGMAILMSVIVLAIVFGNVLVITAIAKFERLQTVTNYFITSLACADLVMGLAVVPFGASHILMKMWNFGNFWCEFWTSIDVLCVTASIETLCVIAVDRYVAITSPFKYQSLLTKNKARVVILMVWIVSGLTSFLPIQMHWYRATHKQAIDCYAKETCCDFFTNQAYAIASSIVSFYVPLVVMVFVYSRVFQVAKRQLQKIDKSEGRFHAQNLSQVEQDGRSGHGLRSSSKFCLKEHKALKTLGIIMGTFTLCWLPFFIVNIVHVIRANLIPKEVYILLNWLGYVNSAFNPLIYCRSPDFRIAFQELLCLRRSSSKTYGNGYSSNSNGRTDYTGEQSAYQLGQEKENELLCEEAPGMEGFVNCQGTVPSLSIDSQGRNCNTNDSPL

COC(=O)C1=C(C)NC(C)=C(C(=O)OC)C1c1ccc(OCC(O)CNC(C)(C)C)c(OC)c1 (stereo not shown) [compound 1]
direct effect on right atrium beating rate and left atrium isometric contractions ([1]; cumulative administration, reserpine pretreated): could not increase the beating rate and isometric contractions | concentration with blocking effect on beating rate and isometric contractions ([1]; reserpine pretreated atria): ≥ 10^-5 M | calcium ion influx effect of KCl ([Ca^2+]i) (A7r5 cells; 50mM KCl): significantly blocked | calcium ion influx effect of BayK8644 ([Ca^2+]i) (A7r5 cells; 10 µ M BayK8644): significantly blocked | effect of BayK8644 pre-treatment on the compound's vascular effect [2]: pre-treatment with BayK8644 would affect vasoconstriction function | Ki (atrial β 1-receptor): 245 nM | blocking of heart contractility increment effect of L-isoproterenol (β-adrenoreceptor (β1) [3]; isolated left atrium, three concentrations of compound): could competitively block the heart contractility increment effect of L-isoproterenol | pA2 value (β-adrenoreceptor (β1) [3]; left atrium contractility, against L-isoproterenol): 6.91±0.26 | tracheal relaxation effect after pretreatment with ICI 118, 551 [4]: concentration-dependently shifting parallel to the right | tracheal relaxation effect ([4]; cumulative administration 10^-10∼3x10^-6 M, reserpine pretreated): dose-dependant tracheal relaxation effect | Ki (lung β 2-receptor): 631 nM | effect on blood pressure and heart rate (normotensive rats; intravenous injection of 0.5 mg/kg): a decrease in heart rate was shown | effect on blood pressure and heart rate (normotensive rats; intravenous injection, 0.1, 0.25, 0.5, 1.0, 2.0 mg/kg, normotensive rats): continuous dose-dependent blood pressure lowering effect without increasing heart rate | duration of blood pressure lowering effect (normotensive rats; intravenous injection, normotensive rats): approximately 1 hour | Lowering of Blood Pressure (normotensive rats; lmg/kg, via femoral vein, rats): 70± 3 mm Hg | Reduction of Heart Rate (normotensive rats; lmg/kg, via femoral vein, rats): 30± 2 beats/min | selectivity ratio of β1 type adrenoceptor (effect on right atrium relative to tracheal) (β-adrenoreceptor (β1) [5]; from the average pA2 difference between right atrium and tracheal): 1.32 X | pA2 value (β-adrenoreceptor (β1) [5]; isolated right atrium, against L-isoproterenol): 7.21±0.32 | blocking of heart rate increment effect of L-isoproterenol (β-adrenoreceptor (β1) [5]; isolated right atrium, three concentrations of compound): could competitively block the heart rate increment effect of L-isoproterenol | pA2 value (β2-adrenoceptor; guinea pig's isolated tracheal, against L-isoproterenol): 7.09±0.54 | blocking of tracheal relaxation effect of L-isoproterenol (β2-adrenoceptor; trachea contracted with 10^-6 M CARBACHOL): could competitively block the effect of L-isoproterenol | Aorta Relaxation [6]: 30± 3%

— patent EP1108710A1, “GUAIACOXYPROPANOLAMINES WITH ALPHA/BETA-ADRENERGIC BLOCKING ACTIVITY” (Cheng, Ing-Jun, priority 1998, dated 2000)
